From patent publication US20220383986A1, “Complex System for Contextual Spectrum Mask Generation Based on Quantitative Imaging” (The Board of Trustees of the University of Illinois, priority 2021, published 2022)

Legend:
CHO cells [1] = assay: time-lapse SLIM recording of CHO cells with and without staurosporine; format: cell-based, Chinese hamster; conditions: 1 μM staurosporine in medium, measured for 10 hours, 37° C. and 5% CO2
Method: CHO cells were plated on a glass bottom 6-well plate for optimal confluency. In addition to NucBlue/NucGreen staining, 1 μM of staurosporine (apoptotic inducing reagent) solution was added to the culture medium. This potent reagent permeates cell membrane and disrupts protein kinase, cAMP, and lead to apoptosis in 4-6 hours. The cells were then measured by SLIM and epi-fluorescence microscopy. The cells were maintained in regular incubation condition (37° C. and 5% concentration of CO2) throughout the experiment. In addition, it is verified that the cells were not affected by necrosis and lytic cell death.
PICS on CHO cells and Evaluate the effect of lytic cell death: Before performing experiments on CHO cells, a preliminary study was conducted, as follows. Live cell cultures were prepared and split into the two groups. 1 μM of staurosporine was added into the medium of the experimental group, whereas the others were kept intact as control. Both control and experimental cells were measured with SLIM for 10 hours under regular incubation condition (37° C. and 5% concentration of CO2).

CHO cells [2] = conditions: 1 μM staurosporine added to culture medium; general description of the reagent; cited from earlier work

CN[C@@H]1C[C@H]2O[C@@](C)([C@@H]1OC)n1c3ccccc3c3c4c(c5c6ccccc6n2c5c31)C(=O)NC4 [staurosporine]
cell characteristics in SLIM (QPI) images versus untreated control (CHO cells [1]): cell volume decreased, and membrane ruptured or became detached
time to apoptosis (CHO cells [2]): 4 to 6 h
